Patent US8178506B2, “Oligomeric compounds and compositions for use in modulation of small non-coding RNAs” (Regulus Therapeutics Inc., priority 2003, dated 2012)
In the oligonucleotide strings, read from the 5' end, every base follows the letter of its sugar. An asterisk marks phosphorothioate; unmarked linkages are phosphodiester. Other units and linkages are bracketed, terminal groups are in braces. A string of capitals states the bases alone. e = 2'-O-(2-methoxyethyl) (MOE); [5mC] = 5-methylcytosine; d = 2'-deoxy (DNA)

How the values were obtained:
Assay type in all cases: cell-based, human
PPARγ = PPARγ mRNA expression in adipocytes (real-time PCR)
HSL = HSL mRNA expression in adipocytes (real-time PCR)
Glut4 = Glut4 mRNA expression in adipocytes (real-time PCR)
aP2 = aP2 mRNA expression in adipocytes (real-time PCR); settings: for aP2 mRNA: Table 75
adipocytes = assay: Triglyceride accumulation assay in adipocytes
[1] = Table 17, differentiating adipocytes, control = treatment with ISIS 342673
[2] = differentiating adipocytes transfected with oligomeric compound, Table 75
[3] = differentiating adipocytes transfected with oligomeric compound
[4] = Table 18, differentiating adipocytes, control = treatment with ISIS 342673
[5] = Table 20, adipocyte differentiation assay as in Example 13

Substance | PPAR gamma mRNA (PPARγ; [1]) | PPAR gamma mRNA (PPARγ; [2]) | HSL mRNA (HSL; [1]) | HSL mRNA (HSL; [2]) | GLUT4 mRNA (Glut4; [1]) | GLUT4 mRNA (Glut4; [2]) | AP2 mRNA (aP2; [1]) | aP2 mRNA (aP2; [3]) | TG (triglyceride accumulation) (adipocytes; [1]) | TG (triglyceride accumulation) (adipocytes; [2]) | PPAR gamma mRNA (PPARγ; [4]) | HSL mRNA (HSL; [4]) | GLUT4 mRNA (Glut4; [4]) | AP2 mRNA (aP2; [4]) | TG (triglyceride accumulation) (adipocytes; [4]) | also measured
328133 (eT*eG*eA*eA*eG*eG*eT*eT*e[5mC]*eG*eG*eA*eG*eA*eT*eA*eG*eG*e[5mC]*eT*eA; anti-miR) [compound 328133] | 63.8 percentage of control | 53 percentage of untreated control (UTC) | 63.0 percentage of control | 49 percentage of untreated control (UTC) | 91.9 percentage of control | 59 percentage of untreated control (UTC) | 69.5 percentage of control | 66 percentage of untreated control (UTC) | 61.2 percentage of control | 43 percentage of untreated control (UTC) | – | – | – | – | – | –
328105 (antisense e[5mC]*e[5mC]*eT*e[5mC]*eA*eA*eT*eT*eA*eT*eT*eG*eG*eA*eA*eA*eT*e[5mC]*eA*e[5mC]*eA) [compound 328105] | – | 85 percentage of untreated control (UTC) | – | 95 percentage of untreated control (UTC) | – | 75 percentage of untreated control (UTC) | – | 102 percentage of untreated control (UTC) | – | 82 percentage of untreated control (UTC) | 93.3 percentage of control | 94.2 percentage of control | 94.2 percentage of control | 88.2 percentage of control | 93.1 percentage of control | –
338664 (antisense e[5mC]*eA*eG*eA*e[5mC]*eT*e[5mC]*e[5mC]*e[5mC]*eA*eA*e[5mC]*eT*eG*eA*e[5mC]*e[5mC]*eA*eG*eA) [compound 338664] | – | – | – | – | – | – | – | – | – | – | – | – | – | – | – | PPAR gamma (PPARγ; [5]): 0.86; HSL (HSL; [5]): 0.76; Glut4 (Glut4; [5]): 1.81; AP2 (aP2; [5]): 1.01; TG (adipocytes; [5]): 1.42
341806 (antisense GCCAATATTTCTGTGCTGCTA; all 2'-MOE, all phosphorothioate, methylation of C not given here) [compound 341806] | – | 70 percentage of untreated control (UTC) | – | 77 percentage of untreated control (UTC) | – | 58 percentage of untreated control (UTC) | – | 83 percentage of untreated control (UTC) | – | – | 72.6 percentage of control | 73.4 percentage of control | 69.4 percentage of control | 75.8 percentage of control | 83.2 percentage of control | –
328111 (antisense eT*e[5mC]*e[5mC]*eG*eA*eG*eT*e[5mC]*eG*eG*eA*eG*eG*eA*eG*eG*eA*eG*eG*eA*eA) [compound 328111] | – | 65 percentage of untreated control (UTC) | – | 77 percentage of untreated control (UTC) | – | 50 percentage of untreated control (UTC) | – | 79 percentage of untreated control (UTC) | – | 65 percentage of untreated control (UTC) | 74.9 percentage of control | 69.5 percentage of control | 59.6 percentage of control | 71.5 percentage of control | 101.9 percentage of control | –
328125 (antisense eT*eA*eT*eG*eA*eA*eA*eT*eG*e[5mC]*e[5mC]*eA*eG*eA*eG*e[5mC]*eT*eG*e[5mC]*e[5mC]*eA) [compound 328125] | 76.1 percentage of control | 68 percentage of untreated control (UTC) | 75.8 percentage of control | 48 percentage of untreated control (UTC) | 99.5 percentage of control | 65 percentage of untreated control (UTC) | 86.9 percentage of control | 75 percentage of untreated control (UTC) | 81.7 percentage of control | 44 percentage of untreated control (UTC) | – | – | – | – | – | –
328759 (antisense eG*eA*eG*eG*eG*dA*dT*dT*dG*dT*dA*dT*dG*dA*dA*e[5mC]*eA*eT*e[5mC]*eT) [compound 328759] | – | – | – | – | – | – | – | – | – | – | – | – | – | – | – | PPAR gamma mRNA (PPARγ; [3]): 95 percentage of untreated control (UTC); HSL mRNA (HSL; [3]): 105 percentage of untreated control (UTC); GLUT4 mRNA (Glut4; [3]): 66 percentage of untreated control (UTC); AP2 mRNA (aP2; [3]): 108 percentage of untreated control (UTC); TG (triglyceride accumulation) (adipocytes; [3]): 87 percentage of untreated control (UTC)
328129 (antisense eA*eG*e[5mC]*e[5mC]*eT*e[5mC]*e[5mC]*eT*eT*e[5mC]*eT*eT*e[5mC]*eT*e[5mC]*eG*eT*eA*e[5mC]*eT*eA) [compound 328129] | 71.8 percentage of control | 59 percentage of untreated control (UTC) | 56.5 percentage of control | 34 percentage of untreated control (UTC) | 60.0 percentage of control | 36 percentage of untreated control (UTC) | 67.6 percentage of control | 54 percentage of untreated control (UTC) | 53.8 percentage of control | 19 percentage of untreated control (UTC) | – | – | – | – | – | –
341800 (antisense AAGCCCAAAAGGAGAAUUCUUUG; all 2'-MOE, all phosphorothioate, methylation of C and T or U not given here) [compound 341800] | – | 61 percentage of untreated control (UTC) | – | 42 percentage of untreated control (UTC) | – | 28 percentage of untreated control (UTC) | – | 50 percentage of untreated control (UTC) | – | 18 percentage of untreated control (UTC) | – | – | – | – | – | –
328117 (antisense eT*e[5mC]*e[5mC]*eA*e[5mC]*eA*eA*eA*eG*e[5mC]*eT*eG*eA*eA*e[5mC]*eA*eT*eG*eT*e[5mC]*eT) [compound 328117] | 64.1 percentage of control | 42 percentage of untreated control (UTC) | 61.7 percentage of control | 18 percentage of untreated control (UTC) | 68.1 percentage of control | 13 percentage of untreated control (UTC) | 65.4 percentage of control | 28 percentage of untreated control (UTC) | 55.0 percentage of control | 16 percentage of untreated control (UTC) | – | – | – | – | – | –
341804 (antisense ATCTGCACTGTCAGCACTTT; all 2'-MOE, all phosphorothioate, methylation of C not given here) [compound 341804] | – | 71 percentage of untreated control (UTC) | – | 75 percentage of untreated control (UTC) | – | 62 percentage of untreated control (UTC) | – | 78 percentage of untreated control (UTC) | – | – | 74.1 percentage of control | 71.6 percentage of control | 73.6 percentage of control | 70.8 percentage of control | 60.9 percentage of control | –
341807 (antisense CTGGGACTTTGTAGGCCAGTT; all 2'-MOE, all phosphorothioate, methylation of C not given here) [compound 341807] | – | 83 percentage of untreated control (UTC) | – | 102 percentage of untreated control (UTC) | – | 101 percentage of untreated control (UTC) | – | 82 percentage of untreated control (UTC) | – | – | 86.2 percentage of control | 96.8 percentage of control | 119.5 percentage of control | 74.8 percentage of control | 114.1 percentage of control | –
328136 (eA*eA*e[5mC]*eT*eA*e[5mC]*eT*eT*e[5mC]*e[5mC]*eA*eG*eA*eG*e[5mC]*eA*eG*eG*eT*eG*eA; anti-miR) [compound 328136] | 72.7 percentage of control | 54 percentage of untreated control (UTC) | 65.0 percentage of control | 37 percentage of untreated control (UTC) | 66.7 percentage of control | 35 percentage of untreated control (UTC) | 73.0 percentage of control | 57 percentage of untreated control (UTC) | 47.0 percentage of control | 26 percentage of untreated control (UTC) | – | – | – | – | – | –
328119 (antisense eA*eA*eT*eA*eA*e[5mC]*eA*e[5mC]*eA*e[5mC]*eA*eT*e[5mC]*e[5mC]*eA*e[5mC]*eT*eT*eT*eA*eA) [compound 328119] | 82.7 percentage of control | 102 percentage of untreated control (UTC) | 98.5 percentage of control | 101 percentage of untreated control (UTC) | 95.2 percentage of control | 104 percentage of untreated control (UTC) | 99.9 percentage of control | 119 percentage of untreated control (UTC) | 90.2 percentage of control | 109 percentage of untreated control (UTC) | – | – | – | – | – | –
